Experimental data: patent US20240132464A1, “HETEROCYCLIC COMPOUNDS AS E3 LIGASE INHIBITORS” (Accutar Biotechnology Inc., priority 2022, published 2024)
pIC50: −log10 of the molar value.

Each molecule was assayed against T1, GID4 (Uniprot ID: Q81VV7, residues 124-289) (Homo sapiens, UniProt Q8IVV7) (assay: GID4 competitive binding assay (AlphaScreen, GID4/degron peptide PGLW)). Settings: 24 nM GID4, 48 nM biotinylated degron peptide PGLW, 4° C., read-out: IC50 (Inhibition of GID4/Degron binding by test compounds).
T1 construct: GID4 (Uniprot ID: Q81VV7, residues 124-289)
T1 sequence (Q8IVV7 124-289): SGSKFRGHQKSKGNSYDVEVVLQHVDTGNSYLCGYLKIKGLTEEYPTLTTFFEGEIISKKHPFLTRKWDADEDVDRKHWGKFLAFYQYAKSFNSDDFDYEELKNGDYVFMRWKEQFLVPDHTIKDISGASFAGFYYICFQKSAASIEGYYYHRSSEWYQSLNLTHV
Method: GID4 Competitive Binding Assay
GID4 binding affinity of compounds disclosed herein was measured by monitoring the interaction of GID4 with its degron peptide (PGLW) in the presence of the test compounds. A truncated version of GID4 (Uniprot ID: Q81VV7, residues 124-289) with a 6*His at its C-terminus was used in this assay. Tetrapeptide, PGLW, was synthesized and tagged with an additional lysine labeled with biotin at its sidechain.
GID4 competitive binding assays were performed in a 384-well plate at 4° C. in a 20 μL reaction volume. Briefly, 24 nM GID4 (final concentration) proteins were pre-incubated with 48 nM biotinylated degron peptide (final concentration) in an assay buffer containing 20 mM HEPES, pH 7.5, 100 mM NaCl, 1 mM DTT, 0.1% Tween-20, and 0.05% BSA in the presence of the test compound in 2% DMSO (final concentration) at various concentrations for 2 h. 5 ug/ml Streptavidin ALphaScreen donor beads and 5 ug/ml nickel chelate (Ni-NTA) ALphaScreen acceptor beads (PerkinElmer, 6760619C) (final concentrations) were then added to the mixture. After an incubation of 1 h at 4° C., the fluorescent signals were obtained on the EnVision® 2105 Multilabel Plate Reader (PerkinElmer).
Raw ALphaScreen data were converted to a percentage of inhibition (relative to DMSO) using the following equations: […]
For a given test compound concentration X:
Signal (X)=Signal (GID4 & peptide & compound)−Signal (GID4 & buffer & compound)
Percentage of inhibition at concentration X=[1−Signal(X)/Signal (DMSO)]*100% b)
The IC50 values were determined by nonlinear regression of plots of [inhibitor] vs. percentage of inhibition with variable slope.
Table 3 summarizes the inhibition of binding between GID4 and degron peptide with compounds of the present disclosure. Compounds were ranked into bins as follows for IC50: A indicates <500 nM; B indicates 500 nM-5000 nM; C indicates >5000 nM.

Compound	pIC50
Nc1nc(C2CC2)cc(N2CCN[C@@H](c3ccccc3Br)C2)n1 (stereo in doubt) [Compound 133, (S/R)-4-(3-(2-bromophenyl)piperazin-1-yl)-6-cyclopropylpyrimidin-2-amine]	5.30 to 6.30
c1ccn2c(C3CCCN(c4ccnc5[nH]cnc45)C3)cnc2c1 (stereo not shown) [Compound 62, 7-(3-(imidazo[1,2-a]pyridin-3-yl)piperidin-1-yl)-3H-imidazo[4,5-b]pyridine]	> 6.30
CN(C)CCCCNC(=O)c1ccc(-c2cc(O)c3ncccc3c2)cc1 [Compound 289, N-(4-(dimethylamino)butyl)-4-(8-hydroxyquinolin-6-yl)benzamide]	> 6.30
Nc1nc(N2CCCC(c3ccn[nH]3)C2)c2[nH]cnc2n1 (stereo not shown) [Compound 207, 6-(3-(1H-pyrazol-5-yl)piperidin-1-yl)-7H-purin-2-amine]	< 5.30
Cc1nc(N)nc(N2CCCC(c3ccn[nH]3)C2)c1Br (stereo not shown) [Compound 216, 4-(3-(1H-pyrazol-5-yl)piperidin-1-yl)-5-bromo-6-methylpyrimidin-2-amine]	< 5.30
CC(C)c1cc(N2CCCC(O)(c3ncn4ccccc34)C2)nc(N)n1 (stereo not shown) [Compound 224, 1-(2-amino-6-isopropylpyrimidin-4-yl)-3-(imidazo[1,5-a]pyridin-1-yl)piperidin-3-ol]	< 5.30
CN1CCC(CNC(=O)c2n[nH]c3ccc(-c4ccc5ccnc(N)c5c4)cc23)CC1 [Compound 337, 5-(1-aminoisoquinolin-7-yl)-N-((1-methylpiperidin-4-yl)methyl)-1H-indazole-3-carboxamide]	> 6.30
CN1CCC(C)(NC(=O)c2n[nH]c3ccc(-c4ccc5ccnc(N)c5c4)cc23)CC1 [Compound 10, 5-(1-aminoisoquinolin-7-yl)-N-(1,4-dimethylpiperidin-4-yl)-1H-indazole-3-carboxamide]	> 6.30
CCOc1ccc(Br)c(C2CN(c3cc(C(C)C)nc(N)n3)CCN2)c1 (single isomer, unassigned) [Compound 25, (R/S)-4-(3-(2-bromo-5-ethoxyphenyl)piperazin-1-yl)-6-isopropylpyrimidin-2-amine]	> 6.30
CC(C)c1cc(N2CCN(C)C(c3ccccc3Br)C2)nc(N)n1 (single isomer, unassigned) [Compound 160, (R/S)-4-(3-(2-bromophenyl)-4-methylpiperazin-1-yl)-6-isopropylpyrimidin-2-amine]	5.30 to 6.30
CN(C)CCCNC(=O)c1csc(-c2cc(O)c3ncccc3c2)c1 [Compound 281, N-(3-(dimethylamino)propyl)-5-(8-hydroxyquinolin-6-yl)thiophene-3-carboxamide]	> 6.30
CN1CCN(c2ccc(Br)c(C3CN(c4cc(N)nc(N)n4)CCN3)c2)CC1 (single isomer, unassigned) [Compound 50, R or S 6-(3-(2-bromo-5-(4-methylpiperazin-1-yl)phenyl)piperazin-1-yl)pyrimidine-2,4-diamine]	> 6.30
CC(C)c1cc(N2CCCC(c3n[nH]c4ccccc34)C2)nc(N)n1 (stereo not shown) [Compound 251, 4-(3-(1H-indazol-3-yl)piperidin-1-yl)-6-isopropylpyrimidin-2-amine]	5.30 to 6.30
Nc1nc2c(c(N3CCCC(c4cnc5ccccn45)C3)n1)CSC2 (stereo not shown) [Compound 186, 4-(3-(imidazo[1,2-a]pyridin-3-yl)piperidin-1-yl)-5,7-dihydrothieno[3,4-d]pyrimidin-2-amine]	< 5.30
CC(C)c1cc(N2CCNC(c3cc(C(F)(F)F)ccc3Br)C2)nc(N)n1 (single isomer, unassigned) [Compound 13, (R/S)-4-(3-(2-bromo-5-(trifluoromethyl)phenyl)piperazin-1-yl)-6-isopropylpyrimidin-2-amine]	> 6.30
CN(C)CCNC(=O)c1c[nH]c2ncc(-c3ccc4ccnc(N)c4c3)cc12 [Compound 8, 5-(1-aminoisoquinolin-7-yl)-N-(2-(dimethylamino)ethyl)-1H-pyrrolo[2,3-b]pyridine-3-carboxamide]	< 5.30
